Measured values: ChEMBL document CHEMBL3396999, “2-Benzisothiazolylimino-5-benzylidene-4-thiazolidinones as protective agents against cartilage destruction” (Bioorg Med Chem, 2015)
Calls of active or inactive are those of the source. The rule behind the calls is not given here.

Key:
[1] = Chondroprotective activity in IL-1beta-induced normal human articular chondrocytes assessed as increase in glycosaminoglycans level at 10 uM by 1,9-dimethylmethylene blue staining based spectrophotometry relative to IL-1beta; assay type: functional
[2] = Chondroprotective activity in IL-1beta-induced normal human articular chondrocytes assessed as reduction in nitric oxide level at 10 uM after 120 hrs by Griess reagent based method; assay type: functional
Stromelysin-1 = Stromelysin-1 (Homo sapiens, UniProt P08254); assay: Inhibition of MMP3 catalytic domain (unknown origin) assessed as reduction in hydrolysis of Mca-Pro-Leu-Gly-Leu-Dpa-Ala-Arg-NH2 substrate measured for 3 mins after substrate addition by fluorescence assay
Chain of Stromelysin-1 (P08254 whole entry, the tested form may be a part): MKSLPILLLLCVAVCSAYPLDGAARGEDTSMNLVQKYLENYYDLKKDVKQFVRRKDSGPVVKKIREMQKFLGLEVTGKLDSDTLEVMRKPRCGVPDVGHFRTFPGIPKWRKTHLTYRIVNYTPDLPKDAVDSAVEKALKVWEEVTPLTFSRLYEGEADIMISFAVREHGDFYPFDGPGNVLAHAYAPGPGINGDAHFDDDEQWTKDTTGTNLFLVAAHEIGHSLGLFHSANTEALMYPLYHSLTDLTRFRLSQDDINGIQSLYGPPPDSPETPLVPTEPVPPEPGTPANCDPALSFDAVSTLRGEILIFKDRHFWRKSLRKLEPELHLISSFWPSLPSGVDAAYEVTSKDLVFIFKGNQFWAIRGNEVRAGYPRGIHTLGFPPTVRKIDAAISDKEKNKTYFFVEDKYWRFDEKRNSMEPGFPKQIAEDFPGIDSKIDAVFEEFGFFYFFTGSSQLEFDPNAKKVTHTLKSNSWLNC

Collagenase 3 = Collagenase 3 (Homo sapiens, UniProt P45452); assay: Inhibition of MMP13 catalytic domain (unknown origin) assessed as reduction in hydrolysis of Mca-Pro-Leu-Gly-Leu-Dpa-Ala-Arg-NH2 substrate measured for 3 mins after substrate addition by fluorescence assay
[3] = Antioxidant activity assessed as AAPH radical scavenging activity assessed as Trolox equivalents by ORAC assay; assay type: physicochemical
[4] = Toxicity against normal human articular chondrocytes assessed as reduction in cell viability by MTT assay
[5] = target: Nuclear factor NF-kappa-B complex (Homo sapiens) (UniProt Q00653+P19838+Q04206); assay: Inhibition of nuclear factor-kappa-B in IL-1beta-induced normal human articular chondrocytes at 10 uM after 120 hrs by Western blotting method
Chain of Nuclear factor NF-kappa-B complex (Homo sapiens) (P19838 whole entry, looked up): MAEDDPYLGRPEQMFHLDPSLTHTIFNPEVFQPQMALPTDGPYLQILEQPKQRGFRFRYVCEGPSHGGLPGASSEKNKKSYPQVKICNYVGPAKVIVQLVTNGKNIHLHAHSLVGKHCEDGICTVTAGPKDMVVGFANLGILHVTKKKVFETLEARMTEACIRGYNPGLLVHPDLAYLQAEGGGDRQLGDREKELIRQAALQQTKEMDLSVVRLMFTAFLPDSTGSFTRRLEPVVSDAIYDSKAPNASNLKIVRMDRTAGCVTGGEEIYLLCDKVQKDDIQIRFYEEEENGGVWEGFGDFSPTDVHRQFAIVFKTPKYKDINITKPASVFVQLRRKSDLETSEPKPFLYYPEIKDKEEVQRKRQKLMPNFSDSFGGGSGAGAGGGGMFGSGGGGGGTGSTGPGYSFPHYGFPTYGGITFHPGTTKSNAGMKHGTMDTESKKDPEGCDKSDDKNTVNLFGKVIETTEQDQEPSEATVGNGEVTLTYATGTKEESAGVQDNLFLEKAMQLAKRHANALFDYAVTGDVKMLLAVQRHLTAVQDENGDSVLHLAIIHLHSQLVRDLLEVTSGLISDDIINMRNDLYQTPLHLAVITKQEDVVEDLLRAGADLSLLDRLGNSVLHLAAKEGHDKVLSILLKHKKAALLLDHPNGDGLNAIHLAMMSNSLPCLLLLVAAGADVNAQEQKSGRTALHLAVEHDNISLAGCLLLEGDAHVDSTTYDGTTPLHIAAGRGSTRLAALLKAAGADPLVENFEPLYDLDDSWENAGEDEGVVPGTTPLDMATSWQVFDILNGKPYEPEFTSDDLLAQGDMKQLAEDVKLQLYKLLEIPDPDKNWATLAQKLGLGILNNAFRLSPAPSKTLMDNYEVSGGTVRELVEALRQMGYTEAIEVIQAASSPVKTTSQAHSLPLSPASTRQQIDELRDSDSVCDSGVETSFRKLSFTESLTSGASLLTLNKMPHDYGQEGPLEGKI
Chain of Nuclear factor NF-kappa-B complex (Homo sapiens) (Q00653 whole entry, looked up): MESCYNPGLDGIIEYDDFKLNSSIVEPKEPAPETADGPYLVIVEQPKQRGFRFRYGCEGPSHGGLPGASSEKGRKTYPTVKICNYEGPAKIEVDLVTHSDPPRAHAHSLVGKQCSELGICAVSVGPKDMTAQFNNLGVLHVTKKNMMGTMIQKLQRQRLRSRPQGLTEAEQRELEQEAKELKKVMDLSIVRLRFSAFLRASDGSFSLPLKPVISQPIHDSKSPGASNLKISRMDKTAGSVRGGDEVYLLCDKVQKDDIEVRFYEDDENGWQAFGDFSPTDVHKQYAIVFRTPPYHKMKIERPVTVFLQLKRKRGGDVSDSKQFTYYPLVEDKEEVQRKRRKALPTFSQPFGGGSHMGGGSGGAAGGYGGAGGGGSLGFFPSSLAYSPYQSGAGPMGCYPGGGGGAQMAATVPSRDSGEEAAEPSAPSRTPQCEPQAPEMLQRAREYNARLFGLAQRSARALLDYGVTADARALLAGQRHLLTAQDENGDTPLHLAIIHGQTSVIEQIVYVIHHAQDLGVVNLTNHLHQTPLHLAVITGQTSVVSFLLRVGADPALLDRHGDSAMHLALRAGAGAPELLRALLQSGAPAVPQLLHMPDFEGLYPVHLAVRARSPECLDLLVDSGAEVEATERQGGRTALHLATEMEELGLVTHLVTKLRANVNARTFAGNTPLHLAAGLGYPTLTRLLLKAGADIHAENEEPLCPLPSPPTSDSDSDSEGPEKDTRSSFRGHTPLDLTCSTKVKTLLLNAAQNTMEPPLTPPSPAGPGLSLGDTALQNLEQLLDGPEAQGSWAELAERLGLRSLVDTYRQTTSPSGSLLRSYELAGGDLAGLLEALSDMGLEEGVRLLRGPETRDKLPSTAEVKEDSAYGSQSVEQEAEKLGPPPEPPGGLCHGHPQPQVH
Chain of Nuclear factor NF-kappa-B complex (Homo sapiens) (Q04206 whole entry, looked up): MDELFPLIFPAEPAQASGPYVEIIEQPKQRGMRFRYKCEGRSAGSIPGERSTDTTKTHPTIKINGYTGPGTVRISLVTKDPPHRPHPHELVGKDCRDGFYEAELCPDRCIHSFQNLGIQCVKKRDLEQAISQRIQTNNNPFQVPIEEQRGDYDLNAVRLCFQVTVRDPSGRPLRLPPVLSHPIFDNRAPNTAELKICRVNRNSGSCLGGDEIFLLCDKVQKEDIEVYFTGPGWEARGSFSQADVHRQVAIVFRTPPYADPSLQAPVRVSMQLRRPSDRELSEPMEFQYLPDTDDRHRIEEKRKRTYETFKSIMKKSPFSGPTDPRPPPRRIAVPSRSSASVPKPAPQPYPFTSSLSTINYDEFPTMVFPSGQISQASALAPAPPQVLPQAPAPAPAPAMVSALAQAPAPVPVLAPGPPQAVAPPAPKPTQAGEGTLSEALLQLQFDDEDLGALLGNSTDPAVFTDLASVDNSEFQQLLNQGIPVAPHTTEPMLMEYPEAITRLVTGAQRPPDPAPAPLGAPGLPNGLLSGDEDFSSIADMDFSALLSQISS

[6] = Chondroprotective activity in IL-1beta-induced normal human articular chondrocytes assessed as MMP13 protein release at 10 uM after 120 hrs by ELISA method (reference value: 112 ng/ml); assay type: functional

| SMILES | Activity [1] [%] | inhibition at 10 µM [2] [%] | IC50 (Stromelysin-1) [µM] | IC50 (Collagenase 3) [µM] | Activity [3] | Activity [4] | inhibition [5] | Activity [6] [ng/mL] |
| --- | --- | --- | --- | --- | --- | --- | --- | --- |
| O=C1N/C(=N/c2nsc3ccccc23)S/C1=C/c1ccccc1O | 40 | 29 | 97.4 | ≥ 100 | 0.8 | Non-toxic | – | – |
| O=C1N/C(=N/c2nsc3ccccc23)S/C1=C\c1ccc(Cl)cc1 | 30 | 46 | 65 | 25 | 1.64 | Non-toxic | – | – |
| O=C1N/C(=N/c2nsc3ccccc23)S/C1=C/c1cccc(O)c1 | 32 | 9 | ≥ 100 | 26.9 | 1.2 | Non-toxic | – | – |
| COc1cc(/C=C2\S/C(=N\c3nsc4ccccc34)NC2=O)ccc1O | 40 | 66 | 3.15 | ≥ 100 | 1.35 | Non-toxic | Active | 4.3 |
| O=C1N/C(=N/c2nsc3ccccc23)S/C1=C\c1cccc([N+](=O)[O-])c1 | 37 | 46 | ≥ 100 | 55.9 | >= 100 | Non-toxic | – | – |
| O=C1N/C(=N/c2nsc3ccccc23)S/C1=C\c1ccccc1 | 28 | 42 | ≥ 100 | 32 | – | Non-toxic | – | – |
| O=C1N/C(=N/c2nsc3ccccc23)S/C1=C\c1ccccc1[N+](=O)[O-] | 31 | 48 | 43 | 64 | >= 100 | Non-toxic | – | – |
| O=C1N/C(=N/c2nsc3ccccc23)S/C1=C\c1ccccc1Cl | 34 | 13 | 6.19 | 89.4 | 0.45 | Non-toxic | – | – |
